Calls of active or inactive are those of the source.
Key:
[1] = target: Delta-type opioid receptor (Homo sapiens, UniProt P41143); assay: Late-stage results from the probe development effort to identify antagonists of OPRK1: fluorescence-based cell-based dose response OPRD1 counterscreen.; format: functional
Mu-type opioid receptor = Mu-type opioid receptor (Homo sapiens, UniProt P35372); assay: Late-stage results from the probe development effort to identify antagonists of OPRK1: luminescence-based cell-based dose response OPRM1 counterscreen.; format: functional
Mu-type opioid receptor, sequence (P35372 whole entry): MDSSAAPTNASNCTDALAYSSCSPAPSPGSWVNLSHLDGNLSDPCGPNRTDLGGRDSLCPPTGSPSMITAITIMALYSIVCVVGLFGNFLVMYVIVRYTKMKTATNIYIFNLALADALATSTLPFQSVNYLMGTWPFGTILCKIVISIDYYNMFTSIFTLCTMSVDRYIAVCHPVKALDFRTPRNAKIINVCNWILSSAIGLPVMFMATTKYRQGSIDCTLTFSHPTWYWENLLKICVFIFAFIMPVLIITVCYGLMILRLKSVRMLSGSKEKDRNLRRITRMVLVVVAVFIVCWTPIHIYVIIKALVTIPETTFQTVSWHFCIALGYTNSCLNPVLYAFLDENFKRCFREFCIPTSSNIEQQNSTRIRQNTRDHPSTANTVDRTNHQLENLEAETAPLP

Streptococcus = assay: GAS UMAA2166 growth inhibition – luminescence, BacTiterGlo, counter-screen for streptokinase expression inhibitor project, dose response (AID 1915); format: functional, organism-based;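 also: potency for reduction of bacterial viability or growth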
[2] = system: Streptococcus sp. 'group A'; assay: Streptococcus pyogenes SK(-)GAS viability under kanamycin – luminescence, BacTiterGlo, confirmation, counter-screen for streptokinase expression inhibitor project, dose response (AID 1900); format: functional, organism-based
BJ [3] = assay: BJ-TERT fibroblast viability loss – cell-based, RAS-independent, luminescence, dose response (AID 1933); format: functional; settings: Homo sapiens
[4] = alpha-synuclein stem-loop luciferase translation blockers – H4 neuroglioma cells, luminescence, confirmation (AID 1988); format: functional, cell-based
cells = format: functional, cell-based
[5] = activation of miR-122 Renilla sensor silencing – cell-based, Huh7 psiCHECK-miR122, Renilla luciferase, cherry-picked, dose response (AID 651956); format: functional;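 also: huh7 hepatoma cells stably carrying a psiCHECK-2 miR-122 sensor plasmid; renilla luciferase signal reporting endogenous miR-122 activity after 48 h compound exposure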
[6] = DRD fibroblast viability loss – cell-based, non-viral oncogenic, luminescence, dose response (AID 1934); format: functional; settings: Homo sapiens
BJ [7] = assay: BJ-TERT-LT-ST fibroblast viability loss – cell-based, RAS-independent, luminescence, dose response (AID 1935); format: functional; settings: Homo sapiens;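 also: BJ fibroblasts immortalized with TERT plus LT and ST oncogenes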
[8] = Luminescence Cell-Based Dose Response HTS to Identify Inhibitors of 5'UTR Stem-Loop Driven Prion Protein mRNA Translation in H4 Neuroglioblastoma Cells. [Related pubchem assays: 1827 (Project Summary), 1813 (Primary HTS)]; format: functional
Streptokinase A = target: T1, Streptokinase A (Streptococcus pyogenes serotype M1, UniProt P10520); assay: viability-normalized secreted streptokinase activity reduction – plasminogen activation absorbance, OD405, dose response (AID 1914); format: functional, Streptococcus pyogenes M1 GAS;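 also: secreted streptokinase activity via plasminogen activation per viability signal from cell pellet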
T1 sequence (P10520 whole entry): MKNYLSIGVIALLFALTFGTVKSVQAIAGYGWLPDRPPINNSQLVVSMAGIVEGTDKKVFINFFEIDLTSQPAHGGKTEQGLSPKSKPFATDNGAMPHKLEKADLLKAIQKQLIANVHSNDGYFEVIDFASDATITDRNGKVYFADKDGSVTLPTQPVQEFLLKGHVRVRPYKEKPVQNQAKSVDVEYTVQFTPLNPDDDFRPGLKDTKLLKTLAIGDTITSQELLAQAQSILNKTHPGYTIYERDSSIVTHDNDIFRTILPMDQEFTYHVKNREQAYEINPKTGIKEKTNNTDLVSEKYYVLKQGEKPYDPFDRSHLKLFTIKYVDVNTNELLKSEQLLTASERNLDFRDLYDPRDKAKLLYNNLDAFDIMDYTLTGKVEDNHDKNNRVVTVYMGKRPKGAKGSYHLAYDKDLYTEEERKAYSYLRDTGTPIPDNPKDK

[9] = target: Heat shock protein HSP 90-alpha (Homo sapiens, UniProt P07900); format: functional, organism-based
[10] = luciferase reporter signal reduction – luminescence, H4-C neuroglioblastoma cells, dose response (AID 2458); format: functional, cell-based;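 also: H4 neuroglioblastoma cells stably carrying a luciferase reporter gene fusion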
BJ [11] = assay: growth inhibition of engineered Ras-driven BJ cells – cell-based, alamar blue fluorescence, cherrypicked samples, dose response (AID 2631); format: functional; settings: Homo sapiens;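 also: confirmatory dose-response assay in RAS-dependent BJ fibroblasts engineered with TERT, LT and ST, with cytotoxicity read by fluorescence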
BJ [12] = assay: cells; format: functional, cell-based; settings: Homo sapiens
[13] = general mammalian cell viability loss – inhibitor set, cherry-pick, set 2, cytotoxicity control for miR-122 modulator project, dose response (AID 720697); format: functional, cell-based
[14] = luciferase reporter signal suppression in cells – H4 neuroglioma cells, luminescence, dose response (AID 1990); format: functional, cell-based
[15] = alpha-synuclein stem-loop translation blockers – luminescence, H4 neuroglioblastoma cells, dose confirmation, confirmation (AID 2454); format: functional, cell-based;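 also: H4 neuroglioblastoma cells carrying an alpha-synuclein 5'UTR luciferase reporter; potency for inhibition of the luciferase signal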
INS1 = assay: INS-1E survival protection against cytokine death – cell-based, luminescence, retest, dose response (AID 449756); format: functional; settings: Rattus norvegicus;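 also: cell death triggered by IL-1 beta plus TNF-alpha plus IFN-gamma mixture; protective hits raise ATP signal compared with cytokine alone wells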
HEK293 = assay: EBV LMP1 TES2 canonical NF-kB signalling blockers – cell-based, HEK293, luciferase, cherry-pick, dose response (AID 588343); format: functional; settings: Homo sapiens
[16] = general mammalian cell viability loss – activator set, cherry-pick, cytotoxicity control for miR-122 modulator project, dose response (AID 720690); format: functional, cell-based;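 also: HEK293T human cells scored for general mammalian cytotoxicity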
[17] = target: 1-phosphatidylinositol 4,5-bisphosphate phosphodiesterase beta-3 (Homo sapiens, UniProt Q01970); assay: Fluorescence-based biochemical high throughput dose response assay to identify inhibitors of phospholipase C isozymes (PLC-B3).
1-phosphatidylinositol 4,5-bisphosphate phosphodiesterase beta-3, sequence (Q01970 whole entry): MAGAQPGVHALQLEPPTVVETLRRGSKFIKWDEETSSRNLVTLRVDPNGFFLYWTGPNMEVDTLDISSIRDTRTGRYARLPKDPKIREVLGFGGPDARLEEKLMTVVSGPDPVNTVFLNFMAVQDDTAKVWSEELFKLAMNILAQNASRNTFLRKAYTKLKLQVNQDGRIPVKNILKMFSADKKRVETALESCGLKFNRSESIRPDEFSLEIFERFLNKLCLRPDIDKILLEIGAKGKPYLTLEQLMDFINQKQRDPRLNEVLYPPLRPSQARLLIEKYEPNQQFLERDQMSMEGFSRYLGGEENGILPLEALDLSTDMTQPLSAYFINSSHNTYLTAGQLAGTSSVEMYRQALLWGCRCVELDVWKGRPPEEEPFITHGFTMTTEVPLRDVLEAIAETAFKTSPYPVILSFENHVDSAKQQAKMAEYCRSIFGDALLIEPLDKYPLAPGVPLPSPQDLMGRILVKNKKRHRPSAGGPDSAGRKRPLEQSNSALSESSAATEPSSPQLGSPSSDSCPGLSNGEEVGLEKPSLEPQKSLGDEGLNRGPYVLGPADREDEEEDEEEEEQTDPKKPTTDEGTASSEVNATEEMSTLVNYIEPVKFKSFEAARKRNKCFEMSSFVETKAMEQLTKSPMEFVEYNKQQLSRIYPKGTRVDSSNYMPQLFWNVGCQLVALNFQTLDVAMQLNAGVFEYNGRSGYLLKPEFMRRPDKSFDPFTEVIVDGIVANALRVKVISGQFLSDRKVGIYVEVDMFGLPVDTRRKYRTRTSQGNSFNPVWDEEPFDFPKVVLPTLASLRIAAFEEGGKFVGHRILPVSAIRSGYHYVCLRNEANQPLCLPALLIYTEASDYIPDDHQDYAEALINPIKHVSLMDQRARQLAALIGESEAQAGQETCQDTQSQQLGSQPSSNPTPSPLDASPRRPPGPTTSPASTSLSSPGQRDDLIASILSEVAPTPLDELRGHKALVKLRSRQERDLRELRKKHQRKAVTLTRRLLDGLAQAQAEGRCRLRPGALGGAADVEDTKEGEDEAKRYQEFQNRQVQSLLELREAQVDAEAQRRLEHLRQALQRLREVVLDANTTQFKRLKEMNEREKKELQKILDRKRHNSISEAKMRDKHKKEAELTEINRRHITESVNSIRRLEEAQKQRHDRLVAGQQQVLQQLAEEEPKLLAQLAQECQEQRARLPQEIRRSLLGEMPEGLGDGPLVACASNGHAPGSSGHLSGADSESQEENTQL

[18] = target: 1-phosphatidylinositol 4,5-bisphosphate phosphodiesterase gamma-1 (Homo sapiens, UniProt P19174); assay: Counterscreen for inhibitors of phospholipase C isozymes (PLC-B3): Fluorescence-based biochemical high throughput dose response assay to identify inhibitors of phospholipase C isozymes (PLC-gamma1).
1-phosphatidylinositol 4,5-bisphosphate phosphodiesterase gamma-1, sequence (P19174 whole entry): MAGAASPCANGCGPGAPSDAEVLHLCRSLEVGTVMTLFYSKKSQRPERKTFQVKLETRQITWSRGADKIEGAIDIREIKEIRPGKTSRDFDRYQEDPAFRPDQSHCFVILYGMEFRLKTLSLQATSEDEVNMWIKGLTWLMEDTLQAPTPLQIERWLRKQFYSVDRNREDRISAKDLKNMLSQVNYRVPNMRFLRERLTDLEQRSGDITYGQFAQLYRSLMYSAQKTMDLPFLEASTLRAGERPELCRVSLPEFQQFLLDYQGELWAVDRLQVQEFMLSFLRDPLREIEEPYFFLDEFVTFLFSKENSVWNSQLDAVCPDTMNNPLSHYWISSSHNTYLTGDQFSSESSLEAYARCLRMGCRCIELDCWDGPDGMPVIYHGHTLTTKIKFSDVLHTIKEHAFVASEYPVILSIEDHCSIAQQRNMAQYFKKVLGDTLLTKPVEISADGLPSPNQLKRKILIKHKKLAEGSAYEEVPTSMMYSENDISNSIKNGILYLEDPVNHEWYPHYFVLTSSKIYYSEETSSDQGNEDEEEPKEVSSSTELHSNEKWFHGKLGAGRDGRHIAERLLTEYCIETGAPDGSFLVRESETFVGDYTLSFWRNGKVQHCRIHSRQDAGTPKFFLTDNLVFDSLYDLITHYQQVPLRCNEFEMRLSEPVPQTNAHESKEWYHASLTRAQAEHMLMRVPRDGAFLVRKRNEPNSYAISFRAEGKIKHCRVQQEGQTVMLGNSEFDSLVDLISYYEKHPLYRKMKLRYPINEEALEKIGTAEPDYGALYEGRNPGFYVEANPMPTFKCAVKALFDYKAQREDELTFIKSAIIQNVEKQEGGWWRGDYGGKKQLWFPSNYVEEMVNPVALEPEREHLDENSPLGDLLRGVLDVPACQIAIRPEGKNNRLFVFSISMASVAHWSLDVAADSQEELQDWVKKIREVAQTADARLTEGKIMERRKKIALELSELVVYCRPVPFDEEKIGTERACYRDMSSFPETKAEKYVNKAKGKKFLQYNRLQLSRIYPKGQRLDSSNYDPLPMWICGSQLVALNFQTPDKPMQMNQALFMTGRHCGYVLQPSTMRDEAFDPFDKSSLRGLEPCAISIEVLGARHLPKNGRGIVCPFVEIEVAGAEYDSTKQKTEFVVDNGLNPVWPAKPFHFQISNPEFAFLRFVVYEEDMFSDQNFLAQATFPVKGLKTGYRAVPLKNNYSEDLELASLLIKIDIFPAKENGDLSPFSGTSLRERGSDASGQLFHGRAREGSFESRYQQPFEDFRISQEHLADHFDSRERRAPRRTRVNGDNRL

[19] = inhibition of ADAM10 peptide cleavage – biochemical, FRET peptide substrate, recombinant human ADAM10, selectivity assay for ADAM17 exosite inhibitor project, dose response (AID 743259);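 also: ADAM10 enzyme cleaving a FRET peptide substrate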
[20] = target: Disintegrin and metalloproteinase domain-containing protein 17 (Homo sapiens, UniProt P78536); assay: exosite inhibitors of ADAM17, dose response, biochemical (AID 743260)
Disintegrin and metalloproteinase domain-containing protein 17, sequence (P78536 whole entry, the tested form may be a part): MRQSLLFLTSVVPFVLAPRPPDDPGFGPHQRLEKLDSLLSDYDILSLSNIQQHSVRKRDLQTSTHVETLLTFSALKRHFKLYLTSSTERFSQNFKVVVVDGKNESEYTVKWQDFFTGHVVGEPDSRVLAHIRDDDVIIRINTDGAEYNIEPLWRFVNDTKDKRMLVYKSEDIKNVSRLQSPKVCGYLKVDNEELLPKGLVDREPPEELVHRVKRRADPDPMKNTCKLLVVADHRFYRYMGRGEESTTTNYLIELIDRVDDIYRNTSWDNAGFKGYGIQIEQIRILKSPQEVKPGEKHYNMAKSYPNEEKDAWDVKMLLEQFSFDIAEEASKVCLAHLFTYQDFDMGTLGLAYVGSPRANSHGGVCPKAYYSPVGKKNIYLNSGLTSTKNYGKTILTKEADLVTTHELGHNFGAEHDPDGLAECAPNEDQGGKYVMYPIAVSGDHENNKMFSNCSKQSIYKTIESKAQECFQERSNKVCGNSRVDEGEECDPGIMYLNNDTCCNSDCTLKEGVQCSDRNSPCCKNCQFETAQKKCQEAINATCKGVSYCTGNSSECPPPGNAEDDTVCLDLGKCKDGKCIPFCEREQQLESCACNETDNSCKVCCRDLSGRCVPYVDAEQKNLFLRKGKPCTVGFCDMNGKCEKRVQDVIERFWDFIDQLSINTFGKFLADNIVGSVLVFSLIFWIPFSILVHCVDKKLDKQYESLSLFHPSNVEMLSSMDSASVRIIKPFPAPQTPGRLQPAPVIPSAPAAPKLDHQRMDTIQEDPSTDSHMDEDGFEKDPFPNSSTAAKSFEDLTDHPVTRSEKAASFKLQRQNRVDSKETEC

[21] = optical artefact potency, substrate without enzyme – biochemical, fluorescence intensity, triplicate, artefact control for kallikrein-7 zymogen activator project, dose response (AID 720493)
Kallikrein-7 = Kallikrein-7 (Homo sapiens, UniProt P49862); assay: Fluorescence Intensity-based biochemical primary high throughput dose response assay to identify activators of kallikrein-7 (K7) zymogen.
Kallikrein-7, sequence (P49862 whole entry): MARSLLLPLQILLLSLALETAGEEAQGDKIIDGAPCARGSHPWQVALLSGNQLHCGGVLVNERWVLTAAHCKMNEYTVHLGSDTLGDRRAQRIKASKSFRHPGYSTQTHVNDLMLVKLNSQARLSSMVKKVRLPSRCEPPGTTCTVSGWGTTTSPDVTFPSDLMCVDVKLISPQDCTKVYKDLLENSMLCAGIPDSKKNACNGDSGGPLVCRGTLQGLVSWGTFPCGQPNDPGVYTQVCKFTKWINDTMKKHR

[22] = HeLa cell viability loss – plate reader, dry powder, cytotoxicity control, dose response (AID 651946); format: functional, cell-based

Delta-type opioid receptor, sequence (P41143 whole entry): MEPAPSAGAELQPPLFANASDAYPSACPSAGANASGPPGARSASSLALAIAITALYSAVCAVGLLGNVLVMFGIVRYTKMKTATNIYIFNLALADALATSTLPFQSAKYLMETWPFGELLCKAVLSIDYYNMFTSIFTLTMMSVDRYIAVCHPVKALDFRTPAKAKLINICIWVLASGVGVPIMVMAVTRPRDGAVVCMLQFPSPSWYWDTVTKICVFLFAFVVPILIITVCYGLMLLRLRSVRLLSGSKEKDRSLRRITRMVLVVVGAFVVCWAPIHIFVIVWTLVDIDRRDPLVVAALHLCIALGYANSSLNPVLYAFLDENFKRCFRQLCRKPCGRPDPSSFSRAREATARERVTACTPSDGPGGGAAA

COC(=O)c1cc(Br)cnc1N1CCC(NC2CCCCC2OC)CC1 (centres undefined)
inactive: IC50 [1] > 50 µM | IC50 (Mu-type opioid receptor) 12 µM

Cc1sc2ncnc(N/N=C/c3ccccc3O)c2c1C
inconclusive: EC50 (BJ [3]) 5.5 µM | EC50 (BJ [7]) 5.79 µM
active: EC50 (Streptococcus) 6.53 µM | EC50 [2] 1.97 µM | EC50 [4] < 0.1 µM | EC50 (cells) 1.22 µM | AC50 [5] 8.43 µM | EC50 [6] 3.5 µM | EC50 [8] 20.5 µM | EC50 (Streptokinase A) 8.21 µM | AC50 [9] 2.1 µM | EC50 [10] 1.17 µM | EC50 (BJ [11]) 4.53 µM | EC50 (BJ [12]) 4.2 µM | AC50 [13] 1.19 µM | EC50 [14] 7.52 µM | EC50 [15] 0.993 µM | AC50 (INS1) 0.642 µM | AC50 (HEK293) 9.16 µM | AC50 [16] 3.28 µM

O=C(N/N=C/c1ccc(OC(=O)c2ccccc2)cc1)c1cccc(O)c1
inactive: IC50 [17] > 122 µM | IC50 [18] > 122 µM

COc1ccccc1CNS(=O)(=O)c1cc(-c2cc(C)no2)ccc1C(C)C
inactive: IC50 [19] > 69.5 µM | IC50 [20] > 69.5 µM

CCC1CCCCN1Cc1c(O)ccc2c(=O)c(-c3ccccc3)coc12 (centres undefined)
active: EC50 [21] > 7.72 µM
inactive: EC50 (Kallikrein-7) > 69.5 µM

c1ccc(-c2nnc(SC(c3ccccc3)c3ccccc3)o2)cc1
inactive: AC50 [22] > 52 µM
